Results from US12414915B2, “Liquid naloxone spray” (HIKMA PHARMACEUTICALS USA INC., priority 2023, dated 2025).
Read-outs that look alike come from different tables or passages of the source.

Assay: Phase I five-way crossover: intranasal and sublingual naloxone spray 8 mg and 16 mg versus 0.4 mg intramuscular, plasma concentrations
Assay type: in vivo, human subjects
Details: for concentration at 0.03 h / concentration at 0.07 h / concentration at 0.1 h / concentration at 0.13 h / concentration at 0.17 h / concentration at 0.5 h / concentration at 1 h / concentration at […] / Cmax / AUC: human, plasma; for concentration at 0.03 h / concentration at 0.07 h / concentration at 0.1 h / concentration at 0.13 h / concentration at 0.17 h / concentration at 0.5 h / concentration at 1 h / concentration at […]: mean ± SD; for concentration at […]: read-out: Conc. @ 0.25 h; for AUC: time-zero to 1 hour post dose
Method: 145 subjects were randomly assigned to one of five groups including 8 milligrams sublingual dose, 16 milligrams sublingual dose, 8 milligrams intranasal dose, 16 milligrams intranasal dose and 0.4 milligram naloxone dose. Plasma concentrations were taken at pre-dose, 0.03, 0.07, 0.1, 0.13, 0.17, 0.25, 0.5, 1, 2 4, 8 and 12 hours' post-dose.

C=CCN1CC[C@]23c4c5ccc(O)c4O[C@H]2C(=O)CC[C@@]3(O)[C@H]1C5 [naloxone, Naloxone]
mean plasma concentration, 16 mg intranasal compared with 16 mg sublingual (2 and 4 hours post-dose): significantly lower
plasma concentration, intranasal compared with sublingual administration (all time points up to 1 hour after administration): significantly greater plasma concentration
concentration at 0.03 h (intramuscular, 0.4 mg IM): 0.15 ± 0.29 ng/mL
concentration at 0.07 h (intramuscular, 0.4 mg IM): 0.36 ± 0.38 ng/mL
concentration at 0.1 h (intramuscular, 0.4 mg IM): 0.51 ± 0.41 ng/mL
concentration at 0.13 h (intramuscular, 0.4 mg IM): 0.58 ± 0.39 ng/mL
concentration at 0.17 h (intramuscular, 0.4 mg IM): 0.63 ± 0.36 ng/mL
concentration at 0.5 h (intramuscular, 0.4 mg IM): 0.62 ± 0.22 ng/mL
concentration at 1 h (intramuscular, 0.4 mg IM): 0.51 ± 0.16 ng/mL
concentration at […] (intramuscular, 0.4 mg IM): 0.69 ± 0.4 ng/mL
concentration at 0.03 h (other: intranasal, 8 mg IN): 6.19 ± 14.5 ng/mL
concentration at 0.07 h (other: intranasal, 8 mg IN): 13.9 ± 19.1 ng/mL
concentration at 0.1 h (other: intranasal, 8 mg IN): 18.8 ± 15.6 ng/mL
concentration at 0.13 h (other: intranasal, 8 mg IN): 20.5 ± 13.1 ng/mL
concentration at 0.17 h (other: intranasal, 8 mg IN): 20 ± 10.7 ng/mL
concentration at 0.5 h (other: intranasal, 8 mg IN): 9.88 ± 4.42 ng/mL
concentration at 1 h (other: intranasal, 8 mg IN): 6.29 ± 2.7 ng/mL
concentration at […] (other: intranasal, 8 mg IN): 16.5 ± 6.71 ng/mL
concentration at 0.03 h (other: intranasal, 16 mg IN): 9.29 ± 14.3 ng/mL
concentration at 0.07 h (other: intranasal, 16 mg IN): 29.7 ± 28 ng/mL
concentration at 0.1 h (other: intranasal, 16 mg IN): 46.3 ± 36.6 ng/mL
concentration at 0.13 h (other: intranasal, 16 mg IN): 49.3 ± 34 ng/mL
concentration at 0.17 h (other: intranasal, 16 mg IN): 45.8 ± 24.6 ng/mL
concentration at 0.5 h (other: intranasal, 16 mg IN): 22.4 ± 8.19 ng/mL
concentration at 1 h (other: intranasal, 16 mg IN): 14.1 ± 5.61 ng/mL
concentration at […] (other: intranasal, 16 mg IN): 35 ± 13.2 ng/mL
concentration at 0.03 h (other: sublingual, 8 mg SL): 0.18 ± 0.29 ng/mL
concentration at 0.07 h (other: sublingual, 8 mg SL): 0.62 ± 0.96 ng/mL
concentration at 0.1 h (other: sublingual, 8 mg SL): 0.88 ± 0.94 ng/mL
concentration at 0.13 h (other: sublingual, 8 mg SL): 1.17 ± 1.13 ng/mL
concentration at 0.17 h (other: sublingual, 8 mg SL): 1.54 ± 1.1 ng/mL
concentration at 0.5 h (other: sublingual, 8 mg SL): 2.03 ± 1.28 ng/mL
concentration at 1 h (other: sublingual, 8 mg SL): 1.61 ± 0.85 ng/mL
concentration at […] (other: sublingual, 8 mg SL): 1.98 ± 1.29 ng/mL
concentration at 0.03 h (other: sublingual, 16 mg SL): 0.52 ± 0.8 ng/mL
concentration at 0.07 h (other: sublingual, 16 mg SL): 1.69 ± 1.85 ng/mL
concentration at 0.1 h (other: sublingual, 16 mg SL): 2.31 ± 2.08 ng/mL
concentration at 0.13 h (other: sublingual, 16 mg SL): 3.16 ± 3.39 ng/mL
concentration at 0.17 h (other: sublingual, 16 mg SL): 3.63 ± 3.83 ng/mL
concentration at 0.5 h (other: sublingual, 16 mg SL): 3.94 ± 2.96 ng/mL
concentration at 1 h (other: sublingual, 16 mg SL): 2.96 ± 1.66 ng/mL
concentration at […] (other: sublingual, 16 mg SL): 4.39 ± 4.24 ng/mL
Cmax (other: intranasal, 8 mg IN): 20.5 ng/mL
AUC (other: intranasal, 8 mg IN): 11.2 ng·h/mL
Cmax (other: intranasal, 16 mg IN): 49.3 ng/mL
AUC (other: intranasal, 16 mg IN): 24.9 ng·h/mL
Cmax (other: sublingual, 8 mg SL): 2.03 ng/mL
AUC (other: sublingual, 8 mg SL): 1.68 ng·h/mL
Cmax (other: sublingual, 16 mg SL): 4.39 ng/mL
AUC (other: sublingual, 16 mg SL): 3.42 ng·h/mL
Cmax (0.4 mg IM): 0.69 ng/mL
AUC (0.4 mg IM): 0.57 ng·h/mL
plasma concentration compared with 0.4 mg intramuscular administration (intranasal or sublingual, 8 mg or 16 mg, all time points up to 1 hour, fasted): significantly greater plasma concentrations
